The values that follow come from patent publication US20140005271A1, “PHARMACEUTICAL COMPOSITION FOR PREVENTING OR TREATING INFLAMMATORY DISEASES OR INFECTIOUS DISEASES, CONTAINING m-3M3FBS, WHICH IS ACTIVATOR OF PHOSPHOLIPASE C, AS ACTIVE INGREDIENT” (priority 2011, published 2014).

The test system of test [1] is mouse neutrophils with opsonized E. coli. As to the kind of experiment: Microbicidal action of neutrophils on ingested opsonized E. coli. The test is classed as cell-based. Here is the method:
Neutrophils were incubated for 1 hour at a 13-mm plastic cover slip on a 60-mm plastic petri dish (1×10^6 neutrophils/cover slip) at 37° C. Unattached neutrophils were removed by PBS washing, and the attached neutrophils were incubated with 10^6 of opsonized E. coli for 20 minutes. Microbes ingested by neutrophils were incubated for 30 minutes at various concentrations of m-3M3FBS or vehicles, and changes of the microbes before and after incubation were examined. A percentage of dead microbes was calculated by 100×(1−the number of CFU after m-3M3FBS stimulation/the number of CFU before m-3M3FBS stimulation).

Test [2] has as its system CLP mouse models. The test is described as follows: Survival/mortality of CLP (cecal ligation and puncture) sepsis mice. The test is classed as in vivo. The settings on record: for effect on the m-3M3FBS-induced survival rate: treated within the period of injecting m-3M3FBS, 1.5 mg/kg, FIG. 1C. Here is the method:
(§1) Male WT ICR mice were used as test models. All tests involving animals were performed according to the guidelines, and received the approval of Institutional Review Committee for Animal Care and Use from Dong-a University. For cecal ligation and puncture (CLP), the mice were anesthetized by intraperitoneal injection of pentothal sodium (50 mg/kg), and the cecum was exposed through midline incision of the abdomen. The cecum was ligated at a terminal end of the ileocecal valve, and the surface was perforated twice, or once to measure cytokine production using a 22-gauge needle, and the abdomen was closed. The control (sham) CLP mice underwent the same process as described above, but the cecum was not ligated or punctured.

The subject of test [3] is mouse neutrophils. The test is described as follows: Production of H2O2 in neutrophils. The test is classed as cell-based. As for the experimental part: Neutrophils of mice were isolated from peripheral blood using Histopaque-1077 solvent (Sigma), and neutrophils isolated from a normal mouse were stimulated by treating various concentrations of m-3M3FBS for 10 minutes in the presence of cytochalasin B (5 μm). […] H2O2 obtained from a supernatant was analyzed using H2O2 Molecular Probes.

The test system of test [4] is splenocytes of mice. As to the kind of experiment: Direct in vitro production of IFN-γ and IL-12 by ELISA. The test is classed as cell-based, mouse. The settings on record: various concentrations, 3 hours. On the technique in general: In an ELISA, binding on a coated surface is turned into a signal by an enzyme label.
In test [5] the test system is mouse neutrophils. The test is described as follows: LPS-induced proinflammatory cytokine secretion in neutrophils by ELISA. The test is classed as cell-based. The settings on record: LPS 100 ng/ml, m-3M3FBS 10 μM, versus LPS alone. Here is the method: Mouse neutrophils (3×10^6 cells/0.3 ml) were incubated in a 24-well plate containing 10% FBS-contained RPMI 1640 medium, and placed in 5% CO2 incubator at 37° C. Then, the neutrophils were incubated with LPS (100 ng/ml) for 6 hours in the presence or absence of m-3M3FBS (10 μM). The LPS (100 ng/ml) was treated to the cells after 30 minutes, the cell-free supernatant was harvested by centrifugation, and the production of IL-1 or TNF-α was detected by ELISA (BD Biosciences Pharmingen) according to the manufacturer's instructions.

In test [6] the test system is lung of the CLP mouse. As to the kind of experiment: Inflammation of the lung in CLP mice (hematoxylin and eosin staining, W/D weight ratio). The test is classed as in vivo. The settings on record: 1.5 mg/kg. As for the experimental part:
The degree of pulmonary edema was identified by measuring a wet-to-dry (W/D) ratio of the lung. The wet weight of the harvested cells was measured, and the cells were placed in an oven at 60° C. for 48 hours, and the dry weight of the cells was measured, thereby obtaining the W/D ratio.
2 hours after the mice underwent CLP, PBS or m-3M3FBS was administered at a concentration of 1.5 mg/kg. 24 hours after the surgery, the mice were euthanized, and the lung was fixed, cut, and stained with hematoxylin and eosin to perform morphological analysis.

The subject of test [7] is splenocytes. The test is described as follows: TUNEL assay of CLP-induced apoptosis. The test is classed as in vivo, mouse. The settings on record: 1.5 mg/kg; FIG. 4C. As for the experimental part: The TUNEL assay was performed on tissue fragments embedded in paraffin, and the fragments were subjected to permeation of Triton X-100 at 4° C. for 2 minutes, and immersed in a TdT enzyme and a digoxigenin-dUTP reaction buffer (TUNEL) reagent for 60 minutes at 37° C. A percentage of apoptotic cells (TUNEL-positive cells) was determined by counting 500 splenocytes, which were observed using an optical microscope.

In test [8] the test system is bacteria in the peritoneal fluid. As to the kind of experiment: In vivo microbicidal action: bacterial colonies (CFU) in peritoneal lavage fluid after CLP. On the set-up: species or system mouse. The settings on record: 1.5 mg/kg; 24 hours after CLP; FIG. 3A. As for the experimental part:
24 hours after the CLP, peritoneal lavage fluid was harvested, and was incubated overnight in a blood-agar base plate (Trypticase Soy Agar Deeps, Becton Dickinson) at 37° C. CFUs were estimated by counting bacteria colonies formed in the blood-agar base plate (Trypticase Soy Agar Deeps, Becton Dickinson).

The subject of test [9] is caspase-3. The test is described as follows: Immunostaining of fragmented caspase-3 in splenocytes of CLP mice. Set-up: species or system mouse. The settings on record: 1.5 mg/kg in vivo; FIG. 4D. As for the experimental part:
Immunostaining was performed on the paraffin-embedded tissue fragments. The fragments were incubated with primary antibodies (Cell Signal transduction) in response to fragmented capase-3, and stained with fluorescent pigment-fused secondary antibodies.

For test [10], the system named is cytokines in the peritoneal fluid. As to the kind of experiment: CLP-induced cytokines in peritoneal fluid by ELISA. The settings on record: 1.5 mg/kg, 4 to 72 hours after CLP. The test is classed as in vivo, mouse. As for the experimental part: To detect production of CLP-inducing cytokines in peritoneal lavage fluid, m-3M3FBS was treated 2, 14, 26, or 38 hours after CLP. The peritoneal lavage fluid was harvested at various points of time from 4 to 72 hours after the CLP, and expression of cytokines in the peritoneal fluid was detected by ELISA (BD Biosciences Pharmingen).

Test [11] deals with thymocytes and splenocytes. As to the kind of experiment: CLP-induced apoptosis of thymocytes and splenocytes (H&E staining, counting of living cells). The test is classed as in vivo, mouse. The settings on record: 1.5 mg/kg; 24 hours; FIGS. 4A and B. Here is the method: as §1

As to `COc1ccc2c(c1)CC[C@@H]1[C@@H]2CC[C@]2(C)[C@@H](NCCCCCCN3C(=O)C=CC3=O)CC[C@@H]12` [U-73122, reference compound], the “effect on m-3M3FBS-induced microbicidal action” value in test [1] (neutrophils preincubated with the inhibitor (10 μM), then m-3M3FBS added, FIG. 3C) is recorded as “completely prevented”. Further, the “effect on the m-3M3FBS-induced survival rate” value in test [2] is recorded as “completely prevented the increase in the m-3M3FBS-induced survival rate”. Also, the “effect on m-3M3FBS-induced production of H2O2” value in test [3] (neutrophils preincubated with the inhibitor (10 μm), FIG. 3E) was “significantly decreased”.
On to `Cc1cc(C)c(S(=O)(=O)Nc2cccc(C(F)(F)F)c2)c(C)c1` [m-3M3FBS], for which, in test [4] (FIG. 6D), the “production of IFN-γ” value is “increased”. In addition, the “production of IL-12” value in test [4] (FIG. 6E) is recorded as “increased”. The “level of IL-1β after LPS treatment” value in test [5] (FIG. 6A) is “decreased”. Also, the “level of TNF-α after LPS treatment” value in test [5] (FIG. 6B) was “decreased”. Also, the “level of IL-6 after LPS treatment” value in [5] (FIG. 6C) is “decreased”. Further, the “W/D weight ratio of the lung” value in test [6] (24 hours after CLP, FIG. 2B) was “significantly decreased”. In [6] (hematoxylin and eosin staining 24 hours after surgery, FIG. 2A), the “lung inflammation symptoms (congestion, extensive thrombotic lesions)” value is “significantly decreased”. Besides, in test [7], the “CLP-induced apoptosis by DNA fragmentation assay (TUNEL)” value is recorded as “significantly inhibited”. Also, the “microbicidal action of the neutrophils” value in test [1] (1 to 50 μm m-3M3FBS, FIG. 3B) is on record as “significantly increased in a direction proportional to the concentration”. Besides, in [2] (1.5 mg/kg 2 hours after CLP, further three or four times at 12 hour intervals, FIG. 1B), the “survival rate by injection frequency” value is “significantly improved”. In [2] (0.9 or 1.5 mg/kg injected, FIG. 1A), the “survival rate of the mice compared to vehicle-injected control” value is on record as “significantly increased”. Also, the “mortality of the mice after CLP” value in test [2] (various concentrations injected after CLP, FIG. 1A) is “significant decrease in the mortality”. In addition, in test [3] (1 to 50 μm m-3M3FBS, FIG. 3D), the “production of H2O2 in the neutrophils” value is listed as “increased the production of H2O2 in the neutrophils in a direction proportional to the concentration”. Further, in [8], the “decrease in number of colonies of bacteria in the abdominal cavity” value amounted to 55%. Also, the “activation of CLP-induced caspase-3” value in test [9] was “significantly inhibited”. Moreover, the “level of IL-1β in peritoneal fluid” value in test [10] (FIG. 5A) is “significantly decreased”. Besides, in [10] (FIG. 5B), the “level of TNF-α in peritoneal fluid” value is on record as “significantly decreased”. Besides, the “level of IL-12p70 in peritoneal fluid” value in [10] (FIG. 5C) is given as “significantly increased”. Moreover, the “level of IFN-γ in peritoneal fluid” value in test [10] (FIG. 5D) was “significantly increased”. Further, the “CLP-induced apoptosis of the thymocytes and splenocytes” value in test [11] is “significantly inhibited”.
For `COc1ccc2c(c1)CC[C@@H]1[C@@H]2CC[C@]2(C)[C@@H](NCCCCCCN3C(=O)CCC3=O)CC[C@@H]12` [U-73343, reference compound], in [2], the “effect on the m-3M3FBS-induced survival rate” value is listed as “did not”.
